For test [1], the target named is T1, human Cystic Fibrosis Transmembrane Conductance Regulator (CFTR) harboring the ΔF508 mutation (Homo sapiens, UniProt P13569, DEL508-508).
T1 construct: expressed in transfected cells; host or cells: H441 carcinoma line (G418-selected)
Briefly: H441 cell ΔF508-CFTR-HRP cell surface assay (Emax and EC50). Particulars: for Emax: NCI-H441, NA = Not active. Type of test: cell-based. Summed up: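 H441 and 41o- bronchial epithelial cells expressing ΔF508-CFTR with an extracellular-loop-4 HRP tag were treated with a 15-point compound series (24.5–0.001 μM) for two nights, H441 at 27° C, 41o- at 37° C with 0.0005 mg/ml doxycycline. Surface HRP luminescence read; % of maximum VX809 signal and EC50 derived.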

The target in test [2] is T2, CFTR-mediated transepithelial chloride transport in primary human bronchial epithelial cells from a ΔF508 homozygous CF donor (Homo sapiens, UniProt P13569, DEL508-508).
T2 construct: Primary human bronchial epithelial cells from a ΔF508 homozygous CF donor; host or cells: primary CF-HBE cells, ΔF508 homozygous donor
Description: TECC24 recording of CFTR-mediated transepithelial chloride transport in CF-HBE cells (AUC fold over DMSO). Type of test: cell-based. Particulars: test agent 10 μM, 48 hours incubation, AUC of forskolin-stimulated IEQ relative to DMSO. On the procedure:
Example 316: TECC24 AUC Fold Over DMSO @ 10 uM
The effects of a test agent on CFTR-mediated transepithelial chloride transport was measured using TECC24 recording analysis. Test agents were solubilized in DMSO. Solubilized test agents were mixed with incubation medium containing DMEM/F12, Ultroser G (2%; Crescent Chemical, catalog #67042), Hyclone Fetal Clone II (2%; GE Healthcare, catalog #SH30066.02), bovine brain extract (0.25%; Lonza, catalog #CC-4098), insulin (2.5 μg/mL), IL-13 (10 ng/mL), hydrocortisone (20 nM), transferrin (2.5 μg/mL), triiodothyronine (500 nM), ethanolamine (250 nM), epinephrine (1.5 μM), phosphoethanolamine (250 nM), and retinoic acid (10 nM). Primary human bronchial epithelial cells from a ΔF508 homozygous CF donor (CF-HBE cells; from University of North Carolina Cystic Fibrosis Tissue Procurement Center), grown on Transwell HTS 24-well cell culture inserts (Costar, catalog #3378), were exposed to test agents or controls dissolved in incubation medium. The CF-HBE cells were cultured at 36.5° C. for 48 hours before TECC24 recordings were performed in the presence or absence of test agent, a positive control or vehicle (DMSO).
Following incubation, the transwell cell culture inserts containing the test agent or control-treated CF-HBE cells were loaded onto a TECC24 apparatus (TECC v7 or MTECC v2; EP Design) to record the transepithelial voltage (VT) and resistance (TEER) using 4 AgCl electrodes per well configured in current-clamp mode. The apical and basolateral bath solutions both contained (in mM) 140 NaCl, 5 KCl, 2 CaCl2), 1 MgCl2, 10 Hepes, and 10 glucose (adjusted to pH 7.4 with NaOH). To inhibit basal Na+ absorption, the ENaC inhibitor benzamil (10 μM) was added to the bath. Then, the adenylate cyclase activator, forskolin (10 μM), was added to the bath to activate CFTR. The forskolin-stimulated Cl-transport was halted by addition of CFTR inhibitor-172 (20 μM) to the bath at the end of the experiment to confirm specificity. VT and TEER recordings were digitally acquired at routine intervals using TECC or MTECC software (EP Design). VT and TEER were transformed into equivalent transepithelial Cl-current (IEQ), and the Area Under the Curve (AUC) of the IEQ time course between forskolin and CFTR inhibitor-172 addition was generated using Excel (Microsoft). Efficacy is expressed as the ratio of the test agent AUC divided by vehicle AUC. EC50s based on AUC are generated using the non-linear regression log(agonist) vs. response function in Prism software (GraphPad) with Hill Slope fixed=1.
If a test agent increased the AUC of the forskolin-stimulated IEQ relative to vehicle in CF-HBE cells, and this increase was inhibited by CFTR inhibitor-172, then the test agent was considered a CFTR corrector.

SMILES strings stand for the structures.

The text below walks through data of patent US12630498B2 (Genzyme Corporation, priority 2019, dated 2026).

As usually defined, the EC50 is the concentration that produces a half-maximal response. Low values mean higher potency in that assay, high ones lower potency in that assay. Broadly, the Emax is the maximal effect, on the per cent scale that the assay sets.

T1 sequence (P13569 with tags, fused parts or gaps DEL508-508): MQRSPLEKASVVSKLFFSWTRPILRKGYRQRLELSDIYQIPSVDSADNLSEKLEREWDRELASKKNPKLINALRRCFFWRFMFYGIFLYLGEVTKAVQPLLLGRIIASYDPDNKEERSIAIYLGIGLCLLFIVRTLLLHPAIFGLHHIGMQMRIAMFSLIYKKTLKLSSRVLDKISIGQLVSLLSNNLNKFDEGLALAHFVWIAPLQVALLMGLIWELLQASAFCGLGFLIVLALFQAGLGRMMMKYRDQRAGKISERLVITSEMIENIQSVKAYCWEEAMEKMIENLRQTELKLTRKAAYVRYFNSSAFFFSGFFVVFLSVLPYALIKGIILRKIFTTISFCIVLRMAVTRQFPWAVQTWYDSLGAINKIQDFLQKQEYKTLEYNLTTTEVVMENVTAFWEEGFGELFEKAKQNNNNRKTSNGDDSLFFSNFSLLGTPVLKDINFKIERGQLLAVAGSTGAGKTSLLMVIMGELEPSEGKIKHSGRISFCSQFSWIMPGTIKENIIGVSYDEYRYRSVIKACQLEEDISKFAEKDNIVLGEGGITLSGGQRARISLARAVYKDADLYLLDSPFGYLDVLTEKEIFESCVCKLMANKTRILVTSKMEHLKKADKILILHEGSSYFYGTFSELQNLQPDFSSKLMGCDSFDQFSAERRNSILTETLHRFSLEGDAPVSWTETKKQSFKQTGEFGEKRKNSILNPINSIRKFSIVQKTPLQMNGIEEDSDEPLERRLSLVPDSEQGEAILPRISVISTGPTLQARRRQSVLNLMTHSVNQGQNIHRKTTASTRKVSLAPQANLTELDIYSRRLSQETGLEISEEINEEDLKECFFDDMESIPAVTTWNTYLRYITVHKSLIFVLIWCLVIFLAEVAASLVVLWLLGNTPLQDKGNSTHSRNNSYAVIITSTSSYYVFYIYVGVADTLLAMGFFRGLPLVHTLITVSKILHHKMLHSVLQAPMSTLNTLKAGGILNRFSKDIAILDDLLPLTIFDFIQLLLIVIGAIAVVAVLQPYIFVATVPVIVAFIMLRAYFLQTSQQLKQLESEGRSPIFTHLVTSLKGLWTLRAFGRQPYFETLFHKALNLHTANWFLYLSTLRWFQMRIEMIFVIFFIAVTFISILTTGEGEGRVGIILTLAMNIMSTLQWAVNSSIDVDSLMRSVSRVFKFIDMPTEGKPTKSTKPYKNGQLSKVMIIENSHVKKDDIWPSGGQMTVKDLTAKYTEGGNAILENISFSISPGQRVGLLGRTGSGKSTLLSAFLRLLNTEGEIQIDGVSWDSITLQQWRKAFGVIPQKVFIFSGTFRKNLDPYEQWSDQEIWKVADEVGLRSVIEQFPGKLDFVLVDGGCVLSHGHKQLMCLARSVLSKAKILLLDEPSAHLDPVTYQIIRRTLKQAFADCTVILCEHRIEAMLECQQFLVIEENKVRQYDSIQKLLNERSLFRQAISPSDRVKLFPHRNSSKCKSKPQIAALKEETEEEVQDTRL
T2 sequence (P13569 with tags, fused parts or gaps DEL508-508): as above

In test [1], `Cc1ccc2ccc(C(=O)N[C@H](C(=O)O)C(C)(C)C)c(OCc3ccc(OC(F)(F)F)cc3)c2c1` [Example 249, (2S)-3,3-dimethyl-2-[[7-methyl-1-[[4-(trifluoromethoxy)phenyl]methoxy]naphthalene-2-carbonyl]amino]butanoic Acid] returned an EC50 of 200 nM and an Emax of 305%. For the same compound, the “TECC24 AUC fold over DMSO @10 μM” value in test [2] is “A (“A” refers to AUC @10 uM >6)”.
The corresponding values for `CCC(C)(C)[C@H](NC(=O)c1ccc2c(F)cccc2c1OCc1ccc(C(F)(F)F)cc1)C(=O)O` [Example 230, (2S)-2-[[5-fluoro-1-[[4-(trifluoromethyl)phenyl]methoxy]naphthalene-2-carbonyl]amino]-3,3-dimethyl-pentanoic Acid] are 600 nM, 152% and “A (“A” refers to AUC @10 uM >6)”.
For `CCC(C)(C)[C@H](NC(=O)c1ccc2ccc(C)cc2c1OCC1CCCCC1)C(=O)O` [Example 281, (S)-2-(1-(cyclohexylmethoxy)-7-methyl-2-naphthamido)-3,3-dimethylpentanoic Acid], in that order: 700 nM, 246% and “A (“A” refers to AUC @10 uM >6)”.
For `CC1(C(NC(=O)c2ccc3ccccc3c2OCc2ccc(OC(F)(F)F)cc2)C(=O)O)CCCCC1` (stereo not drawn) [Example 1, 2-(1-methylcyclohexyl)-2-[[1-[[4-(trifluoromethoxy)phenyl]methoxy]naphthalene-2-carbonyl]amino]acetic Acid], in that order: 700 nM, 164% and “B (“B” refers to AUC @10 uM between 4-6)”.
In the case of `CCC(C)(C)C(NC(=O)c1ccc2ccc(C)cc2c1OCc1ccc(C(F)(F)F)cc1)C(=O)O` (stereo not drawn) [Example 275, 3,3-Dimethyl-2-{[7-methyl-1-(4-trifluoromethyl-benzyloxy)-naphthalene-2-carbonyl]-amino}-pentanoic Acid], in test [1], the midpoint of the response, the EC50, lay at 200 nM and the Emax amounted to 322%. For the same compound, in test [2], the “TECC24 AUC fold over DMSO @10 μM” value is “A (“A” refers to AUC @10 uM >6)”.
`O=C(N[C@H](C(=O)O)C1CCCC1)c1ccc2ccccc2c1OCC1CCC(F)(F)CC1` [Example 155, (S)-2-cyclopentyl-2-(1-((4,4-difluorocyclohexyl)methoxy)-2-naphthamido)acetic Acid]: in test [1], the response was half-maximal at 4100 nM (EC50) and the Emax turned out to be 60.7%. The “TECC24 AUC fold over DMSO @10 μM” value in test [2] was “C (“C” refers to AUC @10 uM <4)”.
Turning to `CC(C)(C)[C@H](NC(=O)c1ccc2ccc(Cl)cc2c1OCc1ccc(OC(F)(F)F)cc1)C(=O)O` [Example 237, (S)-2-(7-chloro-1-((4-(trifluoromethoxy)benzyl)oxy)-2-naphthamido)-3,3-dimethyl Butanoic Acid], in test [1], a half-maximal effect (EC50) was put at 100 nM and the Emax was found to be 275%. Also, the “TECC24 AUC fold over DMSO @10 μM” value in test [2] was “A (“A” refers to AUC @10 uM >6)”.
With `O=C(N[C@H](C(=O)O)C1CCCCC1)c1ccc2ccccc2c1OCc1ccc(C(F)(F)F)cc1` [Example 128, (S)-2-cyclohexyl-2-(1-((4-(trifluoromethyl)benzyl)oxy)-2-naphthamido)acetic Acid], in test [1], the EC50 was 500 nM and the Emax came out at 158%. In test [2], the “TECC24 AUC fold over DMSO @10 μM” value is “A (“A” refers to AUC @10 uM >6)”.
Turning to `CC1(C(NC(=O)c2ccc3cc(F)ccc3c2OCc2ccc(S(F)(F)(F)(F)F)cc2)C(=O)O)CCCCC1` (stereo not drawn) [Example 50, 2-(6-fluoro-1-((4-(pentafluoro-16-sulfanyl)benzyl)oxy)-2-naphthamido)-2-(1-methylcyclohexyl)acetic Acid], in test [1], the midpoint of the response, the EC50, lay at 400 nM and the Emax was 57.8%. Besides, the “TECC24 AUC fold over DMSO @10 μM” value in test [2] is listed as “C (“C” refers to AUC @10 uM <4)”.
For `C#CC(C)(C)C(NC(=O)c1ccc2ccccc2c1OCc1ccc(OC(F)(F)F)cc1)C(=O)O` (stereo not drawn) [Example 234, 3,3-dimethyl-2-[[1-[[4-(trifluoromethoxy)phenyl]methoxy]naphthalene-2-carbonyl]amino]pent-4-ynoic Acid], in that order: 1300 nM, 140% and “A (“A” refers to AUC @10 uM >6)”.
Turning to `O=C(N[C@@H](Cc1ccccc1)C(=O)O)c1ccc2ccccc2c1OCc1cccc(C(F)(F)F)c1` [Example 95, (1-((3-(trifluoromethyl)benzyl)oxy)-2-naphthoyl)-L-phenylalanine], in test [1], a half-maximal effect (EC50) was put at 16000 nM and the Emax worked out at 29.3%. The “TECC24 AUC fold over DMSO @10 μM” value in test [2] is reported as “C (“C” refers to AUC @10 uM <4)”.
Turning to `O=C(N[C@H](C(=O)O)C12CC(C(F)(F)F)(C1)C2)c1ccc2ccccc2c1OCc1ccc(C(F)(F)F)cc1` [Example 13, (S)-2-(1-((4-(trifluoromethyl)benzyl)oxy)-2-naphthamido)-2-(3-(trifluoromethyl)bicyclo[1.1.1]pentan-1-yl)acetic Acid], in test [1], the EC50 was 1200 nM and the Emax was determined as 81.3%. The “TECC24 AUC fold over DMSO @10 μM” value in test [2] is “C (“C” refers to AUC @10 uM <4)”.
In test [1], `CC(C)(C)[C@H](NC(=O)c1ccc2ccccc2c1OCc1ccc(SC(F)(F)F)cc1)C(=O)O` [Example 35, (S)-3,3-dimethyl-2-(1-((4-((trifluoromethyl)thio)benzyl)oxy)-2-naphthamido)butanoic Acid] registered an EC50 of 600 nM and an Emax of 86.4%. Moreover, in test [2], the “TECC24 AUC fold over DMSO @10 μM” value is recorded as “A (“A” refers to AUC @10 uM >6)”.
In the case of `CC(OCc1ccccc1)[C@H](NC(=O)c1ccc2cc(F)ccc2c1OCc1ccc(Cl)c(Cl)c1)C(=O)O` (stereo in doubt) [Example 208, O-benzyl-N-(1-((3,4-dichlorobenzyl)oxy)-6-fluoro-2-naphthoyl)-L-allothreonine], in test [1], the EC50 amounted to 1500 nM and the maximum response (Emax) is 154%. Also, the “TECC24 AUC fold over DMSO @10 μM” value in test [2] is “C (“C” refers to AUC @10 uM <4)”.
With `CC(C)(C)[C@@H](NC(=O)c1ccc2ccc(Cl)cc2c1OCc1ccc(C(F)(F)F)cc1)C(=O)O` [Example 262, (2R)-2-[[7-chloro-1-[[4-(trifluoromethyl)phenyl]methoxy]naphthalene-2-carbonyl]amino]-3,3-dimethyl-butanoic Acid], in test [1], the 50% effective concentration (EC50) was determined as 1100 nM and the Emax was 132%. Further, the “TECC24 AUC fold over DMSO @10 μM” value in test [2] is listed as “A (“A” refers to AUC @10 uM >6)”.
For `O=C(N[C@@H](Cc1ccc2c(c1)OCO2)C(=O)O)c1ccc2ccccc2c1OCc1ccc(C(F)(F)F)cc1` [Example 106, (S)-3-(benzo[d][1,3]dioxol-5-yl)-2-(1-((4-(trifluoromethyl)benzyl)oxy)-2-naphthamido)propanoic Acid], in that order: 10400 nM, 82.1% and “C (“C” refers to AUC @10 uM <4)”.
As to `O=C(N[C@H](C(=O)O)C(c1ccccc1)c1ccccc1)c1ccc2cc(F)ccc2c1OCC1CCCCC1` [Example 203], in test [1], the EC50 came to 800 nM and the Emax stood at 101%. Further, in test [2], the “TECC24 AUC fold over DMSO @10 μM” value is listed as “C (“C” refers to AUC @10 uM <4)”.
In test [1], `CCC(C)(C)[C@H](NC(=O)c1ccc2ccc(C(F)F)cc2c1OCc1ccc(OC(F)(F)F)cc1)C(=O)O` [Example 250, (2S)-2-[[7-(difluoromethyl)-1-[[4-(trifluoromethoxy)phenyl]methoxy]naphthalene-2-carbonyl]amino]-3,3-dimethyl-pentanoic Acid] had an EC50 of 100 nM and an Emax of 270%. In addition, the “TECC24 AUC fold over DMSO @10 μM” value in test [2] was “A (“A” refers to AUC @10 uM >6)”.
